1 compound from patent publication US8524744B2, “Arylamine ketones, their preparation methods, the pharmaceutical composition containing them and their use” (Institute of Mataria Medica, Chinese Academy of Medical …, priority 2004, dated 2013) can be followed below.

For test [1], the system named is polymorphonuclear leucocytes from rat pleural cavity. As to the kind of experiment: release of β-glucuronidase by polymorphonuclear leucocytes from rat pleural cavity in vitro (PAF as irritant). The test is classed as cell-based. The method, boiled down: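 Carrageenan-elicited pleural PMNs from Wistar rats (2.5×10^6 cells/ml, Dulbecco's buffer) were incubated with compound 15 min at 37° C, then cytochalasin B 5 min, then PAF 5 min. β-Glucuronidase in supernatant was assayed with phenolphthalein-glucuronic acid, 18 h at 37° C, OD 550 nm after NaOH.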

Test [2] addresses T1, PAF receptors of macrophages from mouse peritoneal cavity (Mus musculus, UniProt Q62035).
T1 construct: The cells in peritoneal cavity were collected after injection for 3-4 days; endogenous in cells; host or cells: adherent peritoneal macrophages of C57BL/6 mice (primary)
As to the kind of experiment: competitive binding of [3H]-PAF to its receptors of macrophages from mouse peritoneal cavity. The note with it: 4° C, 150 min, read-out: Ki, competition with [3H]-PAF binding. The procedure:
4% of sodium mercaptoethanol was injected into C57BL/6 mouse peritoneal cavity to induce macrophages. The cells in peritoneal cavity were collected after injection for 3-4 days. 500 μl of suspension (5×10^5cells·ml^−1) was inoculated into 24-well culture plate which was placed into the incubator with 5% CO2 at 37° C for 2.5 hr. The non-adherent cells and serum in media were discarded. 490 μl of Tyrode-Hepes solution and 5 μl of [^3H]-PAF (final concentration: 2.8 nmol·L^−1) were added into each well. 5 μl of unlabeled PAF (5 μmol·L^1) was added into the well for the nonspecific binding. The series concentrations of compound were added into the well for the competitive binding and the corresponding volume of solvent was added into the wells for the total binding or the nonspecific binding. The reaction fluid was incubated at 4° C for 150 min and rinsed to wipe off the free labeled ligand. 300 μl of NaOH (0.3 mol·L^−1) was added to lyse the cells. The lysate fluid was transferred into a vial in which 7 ml of scintillation solution was added. The radioactivity strength was measured by scintillation counter.

For test [3], the system named is macrophages from mouse peritoneal cavity. As to the kind of experiment: chemotaxis of macrophages from mouse peritoneal cavity induced by PAF. The test is classed as cell-based. The note with it: Macrophage, 2 hr, read-out: IC50, inhibition of chemotaxis. Here is the method:
4% of sodium mercaptoethanol was injected into C57BL/6 mouse peritoneal cavity to induce macrophages. The cells in peritoneal cavity were collected after injection for 3-4 days. 27 μl of irritant was added into the well at low part of the chemotaxis plate. The filter membrane was covered on the wells and the top part of the plate was assembled on the filter. 55 μl of cells suspension with various concentrations of the compounds or solvent was added into the well at top part of the plate. The plate was placed into incubater with 5% CO2 at 37° C. for 2 hr. The filter was taken out, stained by hematoxylin and dehydrated. The cells migrated into the other side of the filter was counted by microscope.

In test [4] the test system is mouse ear edema induced by croton oil. As to the kind of experiment: mouse ear edema induced by croton oil. The test is classed as in vivo. The following applies: orally, 50 mg·kg^−1, Kunming mice. Here is the method: Kuming mice (male, 18-22 g) were randomly divided into two groups (treatment and control) with 10 animals for each group. The animals were orally administrated with compounds or solvent, respectively. 1 hr later, 50 μl of 2% croton oil was smeared on the two sides of mouse left ear. After 4 hr the mice were sacrificed by cervical vertebra displacement. The two ears were cut off and the central sections were excised using a punch with a diameter of 8 mm and weighed. Edema was quantified as the weight difference between the two sections.

In test [5] the test system is mouse paw swelling induced by carrageenan. As to the kind of experiment: mouse paw swelling induced by carrageenan. The test is classed as in vivo. The following applies: orally, 50 mg·kg^−1, Kunming mice. The procedure:
Kunming mice (male, 18-22 g) were randomly divided into two groups (treatment and control) with 10 animals for each group. The animals were orally administrated with compounds or solvent, respectively. 1 hr later, 50 μl of 1% carrageenan was intracutaneously injected into the sole of right posterior foot. After 4 hr the animals were sacrificed by displacing cervical vertebra. The two paws were cut off at ankle joint and weighed. The swelling was evaluated by the difference of the weights of two paws.

The test system of test [6] is rat paw swelling induced by carrageenan. As to the kind of experiment: rat paw swelling induced by carrageenan. Format: in vivo. The note with it: orally, 100 mg·kg^−1, Wistar rats. Here is the method:
Wistar rats (male, 180±20 g) were randomly divided into two groups (treatment and control) with 10 animals for each group. The animals were orally administrated with the compound or solvent, respectively. 1 hr later, 100 μl of 1% carrageenan was intracutaneously injected into the sole of right posterior foot. The perimeter of the ankle joint inflamed was measured at indicated time. The swelling level was evaluated by the difference of perimeters between the inflamed foot and non-inflamed foot.

The test system of test [7] is rat granuloma induced by cotton ball. The test is described as follows: rat granuloma induced by cotton ball. Format: in vivo. The note with it: orally, 100 mg·kg^−1, 7 days, Wistar rats. The procedure:
Wistar rats (male, 165±15 g) were randomly divided into two groups (treatment and control) with 10 animals for each group. 10 mg of steriled cotton ball was planted into the two groins of the rat under the anaesthetized by ether. The animals were orally administrated with the compound for 7 days. At seventh day the cotton ball was taken out, dried by the oven and weighed. The hyperplasia of granuloma was evaluated by the increase of weight of dried cotton ball.

Test [8] deals with angiogenesis of the chronic granulomatous air pouch in mice. As to the kind of experiment: angiogenesis of the chronic granulomatous air pouch in mice. Format: in vivo, mouse. The note with it: orally. Here is the method:
3 ml of air was injected into the dorsal subcutaneous tissue. 24 hr later, 0.5 ml of 0.1% croton oil in Freund's complete adjuvant was injected into the air pouch. Meanwhile the compound or solvent was orally administrated everyday. At sixth day the mice were anaesthetized and kept at 40° C. for 10 min. 1 ml of 1% carmine red containing 5% gelatin was injected into the tail vein. The animal was kept at 0-4° C. for 2-3 hr. The air-pouch tissue was detached, dried in oven at 56° C. for 48 hr, weighed and cut to small pieces. 2 ml of digesting fluid was added into the tissue. The carmine red was solved by NaOH (5 mol·L^−1). The supernatant was isolated and filtered. The absorbance was measured at 540 nm. The content of carmine red was calculated according to the correct curve.

pIC50, pKi: −log10 of the molar value. Structures can show the parent of a compound that is named as a salt.

T1 sequence (Q62035 whole entry): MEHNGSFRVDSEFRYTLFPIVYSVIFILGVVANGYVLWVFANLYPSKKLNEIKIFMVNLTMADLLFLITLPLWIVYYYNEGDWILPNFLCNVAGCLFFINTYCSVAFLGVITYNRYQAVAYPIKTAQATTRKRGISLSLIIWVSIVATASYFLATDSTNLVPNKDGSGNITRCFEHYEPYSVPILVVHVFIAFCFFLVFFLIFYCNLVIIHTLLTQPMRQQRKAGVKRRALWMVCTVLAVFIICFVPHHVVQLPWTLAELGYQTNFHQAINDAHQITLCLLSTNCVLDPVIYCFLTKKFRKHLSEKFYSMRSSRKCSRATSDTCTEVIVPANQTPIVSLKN

As to `CCOC(=O)C1CCN(CCC(=O)/C=C/c2ccc(Cl)cc2)CC1` [Compound 3, 5-[(4-Ethoxycarbonyl)piperidyl]-1-(4-chlorophenyl)-1-penten-3-one hydrochloride], in test [1] (Dose 2 × 10^−6 mol · L^−1, Irritant 1 × 10^−7 mol · L^−1), the “Inhibition (%) of β-glucuronidase release” value worked out at 142.96%. In addition, the pIC50 (as a rule, the IC50 on a negative log10 scale, so that one unit is a factor of ten) is 9.65 in test [1] (Leucocyte, rat polymorphonuclear leucocytes) and 9.32 in test [3]. The pKi (commonly the Ki on a negative log10 scale, so that one unit is a factor of ten) in test [2] is 5.36. Besides, the “Inhibition (%) of mouse ear edema” value in test [4] stood at 33.52%. For the same compound, the “Inhibition (%) of mouse paw swelling” value in test [5] is 32.52%. For the same compound, the “Inhibition (%) of rat paw swelling” value in test [6] (1 h) is listed as 49.7%; in test [6] (2 h), 55.5%; in test [6] (3 h), 44.2%; in test [6] (4 h), 29.0%; in test [6] (5 h), 19.4%. In test [7], the “Inhibition (%) of rat granuloma” value is listed as 37.93%. Further, the “Inhibition (%) of angiogenesis (content of carmine red)” value in test [8] (Dose 12.5 mg · kg^−1 × 5 d) was 17.8%; in test [8] (Dose 25 mg · kg^−1 × 5 d), 20.6%; in test [8] (Dose 50 mg · kg^−1 × 5 d), 28.4%.
